Measurements taken from US7495007B2, “Spiroindolinone derivatives” (Hoffmann-La Roche Inc., priority 2006, dated 2009).

biological target: interaction between p53 and MDM2 proteins (recombinant GST-tagged MDM2, p53 peptide) (Homo sapiens, UniProt Q00987); test: HTRF assay of inhibition of the p53-MDM2 interaction (GST-MDM2 binding to biotinylated p53 peptide); conditions: 0.02% BSA
Protocol: The ability of the compounds to inhibit the interaction between p53 and MDM2 proteins was measured by an HTRF (homogeneous time-resolved fluorescence) assay in which recombinant GST-tagged MDM2 binds to a peptide that resembles the MDM2-interacting region of p53 (Lane et al.). Binding of GST-MDM2 protein and p53-peptide (biotinylated on its N-terminal end) is registered by the FRET (fluorescence resonance energy transfer) between Europium (Eu)-labeled anti-GST antibody and streptavidin-conjugated Allophycocyanin (APC).
Test is performed in black flat-bottom 384-well plates (Costar) in a total volume of 40 uL containing: 90 nM biotinylate peptide, 160 ng/ml GST-MDM2, 20 nM streptavidin-APC (PerkinElmerWallac), 2 nM Eu-labeled anti-GST-antibody (PerkinElmerWallac), 0.2% bovine serum albumin (BSA), 1 mM dithiothreitol (DTT) and 20 mM Tris-borate saline (TBS) buffer as follows: Add 10 uL of GST-MDM2 (640 ng/ml working solution) in reaction buffer to each well. Add 10 uL diluted compounds (1:5 dilution in reaction buffer) to each well, mix by shaking. Add 20 uL biotinylated p53 peptide (180 nM working solution) in reaction buffer to each well and mix on shaker. Incubate at 37° C. for 1 h. Add 20 uL streptavidin-APC and Eu-anti-GST antibody mixture (6 nM Eu-anti-GST and 60 nM streptavidin-APC working solution) in TBS buffer with 0.2% BSA, shake at room temperature for 30 minutes and read using a TRF-capable plate reader at 665 and 615 nm (Victor 5, Perkin ElmerWallac). If not specified, the reagents were purchased from Sigma Chemical Co.

interaction between p53 and MDM2 proteins (recombinant GST-tagged MDM2, p53 peptide), sequence (Q00987 whole entry): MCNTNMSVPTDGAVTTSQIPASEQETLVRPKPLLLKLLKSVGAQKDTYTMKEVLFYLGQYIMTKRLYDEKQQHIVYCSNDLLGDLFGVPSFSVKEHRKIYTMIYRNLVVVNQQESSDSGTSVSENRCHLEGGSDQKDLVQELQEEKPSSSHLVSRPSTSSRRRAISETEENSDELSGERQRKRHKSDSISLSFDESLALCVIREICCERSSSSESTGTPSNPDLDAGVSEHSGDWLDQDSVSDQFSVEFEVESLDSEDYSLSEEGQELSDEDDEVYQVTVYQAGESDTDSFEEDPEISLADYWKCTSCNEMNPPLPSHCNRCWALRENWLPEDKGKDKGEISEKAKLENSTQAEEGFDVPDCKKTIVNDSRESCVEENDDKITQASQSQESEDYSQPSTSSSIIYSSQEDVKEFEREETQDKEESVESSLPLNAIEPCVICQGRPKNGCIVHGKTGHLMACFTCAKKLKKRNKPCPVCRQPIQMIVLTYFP

Row | SMILES | IC50
1 | C[C@@H]1C(=O)N[C@H](c2cccc(Cl)c2)[C@@]2(C(=O)Nc3cc(Cl)ccc32)[C@@H]1c1cccc(Cl)c1 (racemic) [Example 20, (2′R,3R,4′S,5′S)-6-chloro-2′,4′-bis(3-chlorophenyl)-5′-methylspiro[3H-indole-3,3′-piperidine]-2,6′(1H)-dione] | 1.81 µM
2 | O=C1C[C@@H](c2cccc(Cl)c2)[C@]2(C(=O)Nc3cc(Cl)ccc32)[C@@H](c2ccccc2)N1 (racemic) [Example 14b, (2′R,3R,4′S)-6-chloro-4′-(3-chlorophenyl)-2′-phenylspiro[3H-indole-3,3′-piperidine]-2,6′(1H)-dione] | 0.44 µM
3 | O=C1C[C@H](C2CCCC2)[C@@]2(C(=O)Nc3cc(Cl)ccc32)[C@H](c2cccc(Cl)c2)N1 (racemic) [Example 5d, (2′S,3S,4′R)-6-chloro-2′-(3-chlorophenyl)-4′-cyclopentylspiro[3H-indole-3,3′-piperidine]-2,6′(1H)-dione] | 2.43 µM
4 | CCN1C(=O)C[C@@H](c2cccc(Cl)c2)[C@]2(C(=O)Nc3cc(Cl)ccc32)[C@H]1c1ccccc1C (racemic) [Example 26b, (2′R,3R,4′S)-6-chloro-4′-(3-chlorophenyl)-1′-ethyl-2′-(2-methylphenyl)spiro[3H-indole-3,3′-piperidine]-2,6′(1H)-dione] | 0.49 µM
5 | Cc1ccccc1[C@H]1N(CC(=O)O)C(=O)C[C@@H](c2cccc(Cl)c2)[C@]12C(=O)Nc1cc(Cl)ccc12 (racemic) [Example 31, (2′R,3R,4′S)-6-chloro-4′-(3-chlorophenyl)-1′-[(hydroxycarbonyl)-methyl]-2′-(2-methylphenyl)spiro[3H-indole-3,3′-piperidine]-2,6′(1H)-dione] | 0.372 µM
